Reference: PubChem BioAssay (NCI)
Several values for one entry are separate records, joined by “and”; a condition that tells them apart may be missing. Identical values can stand only once.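 Dose response: 5 concentrations. Exposure: 48 h. Format: 96-well plates. Endpoint: linear interpolation; highest concentration if not reached. GI50 is the concentration that inhibits growth by half. TGI: total growth inhibition.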

How the values were obtained:
Assay in all cases: NCI tumour cell line growth inhibition, 48 h
DLD-1 colon = system: DLD-1 colon
KM20L2 colon = system: KM20L2 colon
LXFL 529 NSCLC = system: LXFL 529 NSCLC
XF 498 CNS = system: XF 498 CNS
HOP-18 NSCLC = system: HOP-18 NSCLC
M19-MEL melanoma = system: M19-MEL melanoma
MDA-N = system: MDA-N
SNB-78 CNS = system: SNB-78 CNS
RXF-631 renal = system: RXF-631 renal
P388 leukemia = system: P388 leukemia
P388/ADR leukemia = system: P388/ADR leukemia

Row | Structure (SMILES) | TGI (DLD-1 colon) [µM] | TGI (KM20L2 colon) [µM] | TGI (LXFL 529 NSCLC) [µM] | TGI (XF 498 CNS) | TGI (HOP-18 NSCLC) [µM] | TGI (M19-MEL melanoma) | TGI (MDA-N) | TGI (SNB-78 CNS) | further results
1 | CC1(C)CC(=O)C(=[N+]=[N-])C(=O)C1 | > 100 | > 100 | > 100 | > 100 µM |  |  |  |  | 
2 | Cc1cccc(C)c1NC(=O)CCC(=O)NC(N)=S | > 100 | > 100 | > 100 |  | > 100 | > 100 µM |  |  | 
3 | COC1C(O)C(C)OC(OC2CC3CCC4C(CCC5(C)C(C6=CC(=O)OC6)CCC45O)C3(O)C(OC(C)=O)C2)C1O (stereo unspecified) |  |  |  |  |  |  | 5.05 µM |  | 
4 | O=C(O)c1cscc1Cc1cccs1 |  |  |  |  |  |  | > 100 µM |  | 
5 | CC(O)C(O)C(O)C(/C=N\Nc1ccccc1)=N/Nc1ccccc1 (stereo unspecified) |  |  |  |  |  |  | 25.1 µM |  | 
6 | COC(=O)C1N=CSCC1(C)O (stereo unspecified) | > 100 | > 100 |  | > 100 µM | > 100 | > 100 µM |  | > 100 µM | 
7 | CCc1c(O)c2c(c(O)c1C(C)=O)C(=O)c1c(cc(O)c(C(=O)O)c1C(=O)O)C2=O |  |  |  |  |  |  | > 100 µM |  | 
8 | CC(=O)[C-](C(C)=O)c1ccccc1.CC(=O)[C-](C(C)=O)c1ccccc1.CC[O-].CC[O-].[Ti+4] |  | > 100 |  |  |  |  |  |  | GI50 (KM20L2 colon): > 100 µM
9 | c1cc[c]([Sn]([S]c2cccc3cccnc23)([S]c2cccc3cccnc23)[c]2ccccc2)cc1 |  |  | 0.211 | 0.407 µM | 0.481 | 0.542 µM |  | 0.68 µM | GI50 (HOP-18 NSCLC): 0.193 µM; GI50 (LXFL 529 NSCLC): 0.0782 µM; GI50 (M19-MEL melanoma): 0.216 µM; GI50 (RXF-631 renal): 0.159 µM; TGI (RXF-631 renal): 0.324 µM; GI50 (SNB-78 CNS): 0.224 µM; GI50 (XF 498 CNS): 0.155 µM
10 | COc1ccc(C(=O)C(C(=O)C(=O)Nc2nccs2)c2ccc(OC)cc2)cc1 (stereo unspecified) | > 100 | > 100 | > 100 | > 100 µM | > 100 |  |  | > 100 µM | 
11 | COc1cc(Cl)c2c3c(c(C(=O)c4ccccc4)oc13)CCC2 | > 100 | > 100 | > 100 | > 100 µM | > 100 | > 100 µM |  | > 100 µM | 
12 | COc1cc(NCC2COc3c(ccc(OC)c3OC)C2=O)c([N+](=O)[O-])cc1OC (stereo unspecified) |  |  |  |  |  |  | > 100 µM |  | 
13 | Cc1cc(C)c2c(SCc3ccc(Cl)cc3Cl)nc(N)nc2n1 |  |  |  |  |  |  | > 100 µM |  | 
14 | CCc1cccc(C(C)CC)c1NC(=O)C(=O)C(CC(=O)Nc1ccc(Cl)c(Cl)c1)C(=O)OC (stereo unspecified) | > 100 | > 100 | > 100 |  |  | > 100 µM |  | > 100 µM | 
15 | NCCP(=O)(O)O |  |  |  |  |  |  | > 100 µM |  | 
16 | O=C1C(=O)c2ccccc2C(O)=C1CC=C(Cl)Cl | 178 | 200 |  | 49.2 µM and 131 µM | 148 | 25.9 µM and 93.8 µM | 34.9 µM and 172 µM | 55.7 µM and 204 µM | GI50 (DLD-1 colon): 7.21 µM; GI50 (KM20L2 colon): 7.04 µM; GI50 (M19-MEL melanoma): 9.49 µM; GI50 (MDA-N): 6.74 µM; TGI (P388 leukemia): 54.9 µM; TGI (P388/ADR leukemia): 49.9 µM; GI50 (SNB-78 CNS): 11.5 µM; GI50 (XF 498 CNS): 12.8 µM
17 | Cc1cc(N(CCC#N)CCC#N)ccc1N=Nc1cccc(Cl)c1 |  | > 100 |  |  |  | > 100 µM |  | > 100 µM | 
18 | CCCCN(CCCC)C(=O)C(=O)C(C)C(=O)CC (stereo unspecified) | > 100 | > 100 | > 100 | > 100 µM |  |  |  | > 100 µM | 
19 | N[C@@H]1CCCC[C@@H]1N.O=C([O-])CN(CP(=O)([O-])[O-])CP(=O)([O-])[O-].[Pt+2] | > 100 | > 100 | > 100 | > 100 µM | > 100 | > 100 µM |  | > 100 µM | GI50 (DLD-1 colon): > 100 µM; GI50 (HOP-18 NSCLC): > 100 µM; GI50 (KM20L2 colon): > 100 µM; GI50 (LXFL 529 NSCLC): > 100 µM; GI50 (M19-MEL melanoma): > 100 µM; GI50 (SNB-78 CNS): > 100 µM; GI50 (XF 498 CNS): > 100 µM
20 | CC(=O)OC1CCC2(C)C(=CCC3C4CCC5(OC6CC(C)CN(C(C)=O)C6C5C)C(C)=C4C(=O)C32)C1 (stereo unspecified) |  |  |  |  |  |  | 48.6 µM |  | 
21 | C1=C(c2ccccc2)SC=C(c2ccccc2)S1 |  |  |  |  |  |  | 36.5 µM |  | 
22 | N#CC(C(=N/NC(N)=S)/C(=N/NC(N)=S)C(C#N)c1ccc(Cl)cc1)c1ccc(Cl)cc1 (stereo unspecified) | > 100 | > 100 | > 100 | > 100 µM | > 100 | > 100 µM |  | > 100 µM | 
23 | COc1ccc(/C=C(/C)[N+](=O)[O-])cc1 |  |  |  |  |  |  | 5.25 µM |  | 
